Key:
[1] = test system: Barrett's esophagus cells; assay: percent survival of Barrett's esophagus cells; format: cell-based, human; conditions: FIG. 1; for sensitivity of Barrett's esophagus cells compared to the other compounds of Table 1: versus other IAP inhibitors of Table 1
Description: FIG. 1 depicts treatment of Barrett's esophagus cells with compounds described herein. The concentration of the compound used and percent survival of the cells is provided.
Cells isolated from individuals diagnosed with or suffering from Barrett's esophagus were treated with the indicated compounds.
(§1) The present example describes methods used for testing the efficacy of compounds described herein. The selective growth of stem cells of cancers, of their precursor lesions, and of normal and chronically diseased epithelial tissues is described in the references below. In brief, biopsied tissues are reduced to single cell suspensions and plated onto lawns of irradiated 3T3-J2 feeder cells in specialized StemEcho media and libraries of colonies are evident in 7-10 days. Single cell-derived clones are generated by single cell FACS sorting to 384 well plates and wells with individual colonies are expanded, analyzed by molecular genetics, and grown as discrete clones.
(§2) Approximately 400,000 cells from discrete clones relevant to particular disease states (cancer, chronic inflammatory disease) are plated into 384 plates previously seeded with irradiated feeder cells, allowed to grow for 5 days, and then exposed to the test compounds in a serial dilution format. After 2-5 days, the cells are fixed using paraformaldehyde and the human cells are labelled with human-specific antibodies followed by fluorochrome-labelled secondary antibodies. Human cell numbers are quantified via high-throughput imaging technology (CellInsight CX7 LED, Thermo), and data analyzed by Excel.

[2] = test system: esophageal adenocarcinoma stem cells; assay: percent survival of esophageal adenocarcinoma stem cells; format: cell-based, human; conditions: FIG. 2; versus other IAP inhibitors of Table 1
Description: FIG. 2 depicts treatment of esophageal adenocarcinoma stem cells with compounds described herein. The concentration of the compound used and percent survival of the cells is provided.
FIG. 6 depicts treatment of Barrett's low grade dysplasia and esophageal adenocarcinoma with compound I-1. FIG. 6A depicts the % survival of Barrett's low grade dysplasia stem cells at higher concentration of compound I-1. FIG. 6B depicts the % survival of Barrett's low grade dysplasia stem cells at lower concentration of compound I-1. FIG. 6C depicts the % survival of esophageal adenocarcinoma stem cells at higher concentration of compound I-1. […]
(§3) The present example describes methods used for testing the efficacy of compounds described herein. […] Single cell-derived clones are generated by single cell FACS sorting to 384 well plates and wells with individual colonies are expanded, analyzed by molecular genetics, and grown as discrete clones.
as §2, with “After 2-5 days, the cells are fixed using paraformaldehyde and the human cells are labelled with human-specific antibodies followed by fluorochrome-labelled secondary antibodies.” left out

[3] = test system: lung adenocarcinoma stem cells; assay: percent survival of lung adenocarcinoma stem cells; format: cell-based, human; conditions: FIG. 3A, 3B
Description: FIG. 3 depicts treatment of lung adenocarcinoma stem cells with compound I-1. FIG. 3A depicts the % survival of lung adenocarcinoma stem cells at higher concentration of compound I-1. FIG. 3B depicts the % survival of lung adenocarcinoma stem cells at lower concentration of compound I-1.
Specifically, lung adenocarcinoma stem cells from an additional individual were tested and treated at higher (nM) or low (pM) concentrations of I-1 (FIG. 3A and FIG. 3B).
as §1, with “In brief, biopsied tissues are reduced to single cell suspensions and plated onto lawns of irradiated 3T3-J2 feeder cells in specialized StemEcho media and libraries of colonies are evident in 7-10 days.” left out
as §2, with “After 2-5 days, the cells are fixed using paraformaldehyde and the human cells are labelled with human-specific antibodies followed by fluorochrome-labelled secondary antibodies.” left out

[4] = test system: advanced Barrett's esophagus stem cells; assay: percent survival of advanced Barrett's esophagus stem cells; format: cell-based, human
Description: FIG. 4 depicts treatment of advanced Barrett's esophagus stem cells with compound I-1 in cells isolated from two different patients. FIG. 4A depicts the % survival of Barrett's esophagus stem cells from a first patient at higher concentration of compound I-1. FIG. 4B depicts the % survival of Barrett's esophagus cells from a first patient at lower concentration of compound I-1. FIG. 4C depicts the % survival of Barrett's esophagus cells from a second patient at higher concentration of compound I-1. FIG. 4D depicts the % survival of Barrett's esophagus stem cells from a second patient at lower concentration of compound I-1.
FIG. 7 depicts treatment of various diseases with compounds I-2 and I-5. FIG. 7A depicts % survival of diffused gastric adenocarcinoma with ascites cells with varying concentrations of compounds I-2 and I-5. FIG. 7B depicts % survival of advanced Barret's cells with varying concentrations of compounds I-2 and I-5. FIG. 7C depicts % survival of high-grade serous ovarian cancer cells with varying concentrations of compounds I-2 and I-5. […]
as §3, with “clones. […]” for “clones.”

[5] = test system: Barrett's high grade dysplasia stem cells; assay: percent survival of Barrett's high grade dysplasia stem cells; format: cell-based, human; conditions: FIG. 5A, 5B
Description: FIG. 5 depicts treatment of Barrett's high grade dysplasia and diffuse gastric cancer with compound I-1. FIG. 5A depicts the % survival of Barrett's high grade dysplasia stem cells at higher concentration of compound I-1. FIG. 5B depicts the % survival of Barrett's high grade dysplasia stem cells at lower concentration of compound I-1. FIG. 5C depicts the % survival of diffuse gastric cancer stem cells at higher concentration of compound I-1. FIG. 5D depicts the % survival of diffuse gastric cancer stem cells at lower concentration of compound I-1.
(§4) FIG. 8 depicts treatment of Barrett's low grade dysplasia and high grade dysplasia with compounds I-1; I-2; I-6; and I-3. […]
as §3
as §2, with “After 2-5 days, the cells are fixed using paraformaldehyde and the human cells are labelled with human-specific antibodies followed by fluorochrome-labelled secondary antibodies.” left out

[6] = test system: Barrett's low grade dysplasia stem cells; assay: percent survival of Barrett's low grade dysplasia stem cells; format: cell-based, human; conditions: FIG. 6A, 6B
Description: FIG. 6 depicts treatment of Barrett's low grade dysplasia and esophageal adenocarcinoma with compound I-1. FIG. 6A depicts the % survival of Barrett's low grade dysplasia stem cells at higher concentration of compound I-1. FIG. 6B depicts the % survival of Barrett's low grade dysplasia stem cells at lower concentration of compound I-1. FIG. 6C depicts the % survival of esophageal adenocarcinoma stem cells at higher concentration of compound I-1. FIG. 6D depicts the % survival of esophageal adenocarcinoma cells at lower concentration of compound I-1.
as §4, §3
as §2, with “After 2-5 days, the cells are fixed using paraformaldehyde and the human cells are labelled with human-specific antibodies followed by fluorochrome-labelled secondary antibodies.” left out

[7] = test system: gastric cancer stem cells; assay: percent survival of (diffuse) gastric cancer stem cells; format: cell-based, human; conditions: two individuals with diffuse gastric cancer; FIG. 7A, 7D
Description: FIG. 7 depicts treatment of various diseases with compounds I-2 and I-5. FIG. 7A depicts % survival of diffused gastric adenocarcinoma with ascites cells with varying concentrations of compounds I-2 and I-5. FIG. 7B depicts % survival of advanced Barret's cells with varying concentrations of compounds I-2 and I-5. FIG. 7C depicts % survival of high-grade serous ovarian cancer cells with varying concentrations of compounds I-2 and I-5. FIG. 7D depicts % survival of gastric cancer with varying concentrations of compounds I-2 and I-5. FIG. 7E depicts % survival taxol resistant ovarian cancer stem cells with varying concentrations of compounds I-2 and I-5. […]
as §3
as §2, with “After 2-5 days, the cells are fixed using paraformaldehyde and the human cells are labelled with human-specific antibodies followed by fluorochrome-labelled secondary antibodies.” left out

[8] = test system: pancreatic cancer stem cells; assay: percent survival of pancreatic cancer stem cells; format: cell-based, human; conditions: varying concentrations; FIG. 9
Description: FIG. 9 depicts treatment of pancreatic cancer with compounds I-9, I-10; I-3; I-11. FIG. 9 depicts the % survival of pancreatic cancer stem cells at varying concentrations of I-9; I-10; I-3; I-11.
as §1, §2

cIAP1 = conditions: inhibits cIAP1; cited from earlier work

CN[C@@H](C)C(=O)N[C@H](C(=O)N1CCC[C@H]1C(=O)N[C@H]1c2ccccc2C[C@H]1OCCOCCNc1c(NCCOCCO[C@@H]2Cc3ccccc3[C@@H]2NC(=O)[C@@H]2CCCN2C(=O)[C@@H](NC(=O)[C@H](C)NC)C2CCCCC2)c(=O)c1=O)C1CCCCC1 [I-1]
sensitivity of Barrett's esophagus cells [1]: particularly sensitive | sensitivity of Barrett's esophagus cells compared to the other compounds of Table 1 [1]: significantly more sensitive | sensitivity of esophageal adenocarcinoma stem cells compared to the other compounds of Table 1 [2]: significantly more sensitive | sensitivity of lung adenocarcinoma stem cells ([3]; higher (nM) or low (pM) concentrations): demonstrate the sensitivity | lethality compared with another highly potent cytotoxic treatment ([3]; higher and lower concentration): comparable lethality to another highly potent cytotoxic treatment | sensitivity of advanced Barrett's esophagus stem cells ([4]; two individuals, higher (nM) or low (pM) concentrations, FIG. 4A-4D): demonstrates the sensitivity | sensitivity of Barrett's high grade dysplasia stem cells [5]: sensitive | sensitivity of Barrett's low grade dysplasia stem cells [6]: sensitive

CN[C@@H](C)C(=O)N[C@H](C(=O)N1CCC[C@H]1C(=O)N[C@H]1c2ccccc2C[C@H]1OCCNc1c(NCCO[C@@H]2Cc3ccccc3[C@@H]2NC(=O)[C@@H]2CCCN2C(=O)[C@@H](NC(=O)[C@H](C)NC)C2CCCCC2)c(=O)c1=O)C1CCCCC1 [I-2]
sensitivity of Barrett's esophagus cells [1]: particularly sensitive | sensitivity of Barrett's esophagus cells compared to the other compounds of Table 1 [1]: significantly more sensitive | sensitivity of esophageal adenocarcinoma stem cells compared to the other compounds of Table 1 [2]: significantly more sensitive | sensitivity of advanced Barrett's esophagus stem cells ([4]; additional individual, varying concentrations, FIG. 7B): notably sensitive | sensitivity of gastric cancer stem cells [7]: sensitive

CN[C@@H](C)C(=O)N[C@H](C(=O)N1CCC[C@H]1C(=O)N[C@H]1c2ccccc2C[C@H]1OCCCCCNc1c(NCCCCCO[C@@H]2Cc3ccccc3[C@@H]2NC(=O)[C@@H]2CCCN2C(=O)[C@@H](NC(=O)[C@H](C)NC)C2CCCCC2)c(=O)c1=O)C1CCCCC1 [I-3]
sensitivity of pancreatic cancer stem cells [8]: sensitive

CN[C@@H](C)C(=O)N[C@H](C(=O)N1CCC[C@H]1C(=O)N[C@H]1c2ccccc2C[C@H]1OCCCNc1c(NCCCO[C@@H]2Cc3ccccc3[C@@H]2NC(=O)[C@@H]2CCCN2C(=O)[C@@H](NC(=O)[C@H](C)NC)C2CCCCC2)c(=O)c1=O)C1CCCCC1 [I-9]
sensitivity of pancreatic cancer stem cells [8]: sensitive

CN[C@@H](C)C(=O)N[C@H](C(=O)N1CCC[C@H]1C(=O)N[C@H]1c2ccccc2C[C@H]1OCCCCNc1c(NCCCCO[C@@H]2Cc3ccccc3[C@@H]2NC(=O)[C@@H]2CCCN2C(=O)[C@@H](NC(=O)[C@H](C)NC)C2CCCCC2)c(=O)c1=O)C1CCCCC1 [I-10]
sensitivity of pancreatic cancer stem cells [8]: sensitive

CN[C@@H](C)C(=O)N[C@H](C(=O)N1CCC[C@H]1C(=O)N[C@H]1c2ccccc2C[C@H]1OCCCCCCNc1c(NCCCCCCO[C@@H]2Cc3ccccc3[C@@H]2NC(=O)[C@@H]2CCCN2C(=O)[C@@H](NC(=O)[C@H](C)NC)C2CCCCC2)c(=O)c1=O)C1CCCCC1 [I-11]
sensitivity of pancreatic cancer stem cells [8]: sensitive

CN[C@@H](C)C(=O)N[C@H](C(=O)N1CCC[C@H]1c1nc(C(=O)c2ccc(F)cc2)cs1)C1CCCCC1 [LCL 161]
IC50 (cIAP1): 0.4 nM

— patent US20260337182A1, “COMPOUNDS AND COMPOSITIONS USEFUL AS INHIBITORS OF IAPs” (Tract Pharmaceuticals, Inc., priority 2022, published 2026)
